Bounds are passed on as bounds.

The values that follow come from a melting point compilation (Tetko et al.; mined from patent text by program, amines drawn as free bases though some values may be those of a salt).

What is called melting point is the temperature of the solid-liquid transition. As for `O=C(CCl)Nc1sccc1C(O)c1ccccc1Cl` (configuration not stated), the melting point fell in the range of 118 to 120 °C.

On to `CCCCOCC(O)COc1cc(C)c(OCC(O)COCCCC)cc1C` (configuration not stated), for which the melting point was less than 30 °C.

For the molecule `COc1ccc(-c2cc(C(F)(F)F)ccc2/C=C/C(=O)Nc2ccc3[nH]ccc3c2)cn1`, the melting point was 219 to 221 °C.

Consider `CNC(=O)c1cc(-c2ccc(OC)c(Cl)c2)nn(CC2CC2)c1=O`, for which the melting point is 172 to 173 °C.

Molecule `Cc1nc(N)nc(N)c1C#CC(C)(C)c1ccc(C(F)(F)F)cc1` came in with a melting point of 153 to 157 °C.

With `Cc1ccc(-c2cc(-c3ccccc3)c(-c3ccccc3)s2)cc1`, the melting point lay in the range of 110 to 112 °C.

In turn, `CCOC(=O)C(CC)Nc1ccc2ccccc2c1` (configuration not stated) came in with a melting point of 81 to 83 °C.

In the case of `COCCOc1cc(N)c(Cl)cc1C(=O)NCC12CCCN(CCC1)C2`, the melting point fell in the range of 154 to 156 °C.

With `O=C(c1cccc(Cl)c1)N1CCc2cc(S(=O)(=O)N3CC(c4ccccc4)NC3=O)ccc21` (configuration not stated), the melting point lay within 132 to 136 °C.

`CCNc1nc(Nc2ccccc2C)c2ccccc2n1`: the melting point lay in the range of 127 to 129 °C.

Consider `CCc1cc2c(=O)c3cccc(C(=O)OCOC(=O)C(C)(C)C)c3n(Cc3ccc(-c4ccccc4-c4nnn[nH]4)cc3)c2s1`, for which the melting point fell in the range of 146 to 152 °C.

In turn, `CC(C)(C)NCc1ccc(COc2cccc3c2CN(C2CCC(=O)NC2=O)C3=O)cc1` (configuration not stated) returned a melting point of 194 to 196 °C.

Turning to `CCn1nc(-c2ccccc2)c(C(C)=O)c(N)c1=O`, the melting point was in the range of 151 to 153 °C.

The molecule `CCNc1nc2c(C)sc(C(=O)OC)c2n1Cc1ccc(-c2ccccc2C#N)cc1` displayed a melting point of 190 to 191 °C.

The molecule `CN(C)c1ccc(CN=C(Cc2ccccc2)N2CC3C(=O)CCC(c4ccccc4)(c4ccccc4)C3C2)cc1` (configuration not stated) showed a melting point of 186 °C.

As for `Cc1nnc2ccc(-c3cccc(NC(=O)C(C)(C)C)c3)nn12`, the melting point fell in the range of 256 to 258 °C.

In turn, `Nc1ccc(S(=O)c2ccc(-c3ccc(Br)cc3)cc2)cc1[N+](=O)[O-]` (configuration not stated) yielded a melting point of 218 to 220 °C.

`C#CCn1c(-c2cccc(C=O)c2)nc(CC)c(CC)c1=O` returned a melting point of 82 to 86 °C.

As for `OCC(CO)C1c2ccccc2-c2ccccc21`, the melting point amounted to 101 °C.

Molecule `C#CCn1c(-c2ccccc2)nc(C=C)c(CC)c1=O` showed a melting point of 113 to 115 °C.

On to `COc1ccc(CSc2nnc(-c3ccnc(NC(=O)CCc4ccccc4)c3)o2)cc1C#N`, for which the melting point lay in the range of 176 to 177 °C.

Consider `O=S(=O)(F)c1cc(Cl)c(Cl)cc1Cl`, for which the melting point was in the range of 80 to 83 °C.

As to `Cn1c(=O)[nH]c(=O)c2cccnc21`, the melting point lay within 277 to 285 °C.

As to `C=NOC(C(=O)O)c1cccc(NC(=O)NCC(=O)N2C(c3ccccc3)CCC2c2ccccc2)c1` (configuration not stated), the melting point amounted to 194 °C.

`N#Cc1c(NC(=O)CO)cccc1N1CCCCC1` gave a melting point of 121 to 124 °C.

In the case of `COc1cc(C)nc2c(OC)cc(Br)cc12`, the melting point was in the range of 167 to 168 °C.

Consider `CC(C)(C)N(NC(=O)c1ccccc1)C(=S)c1ccccc1`, for which the melting point lay in the range of 169 to 171 °C.

As to `COC(=O)c1cccc(-c2ccoc2C(F)F)c1`, the melting point is 55 to 56 °C.

In the case of `CC(C)(C)OC(=O)N[C@@H](CC(=O)O)C(=O)OC(C)(C)C`, the melting point fell in the range of 97 to 99 °C.

`Cc1ccc(S(=O)(=O)C2(CC#Cc3ccc(Cl)cc3)SC(=O)N(C(c3ccccc3)(c3ccccc3)c3ccccc3)C2=O)cc1` (configuration not stated) showed a melting point of 221 to 223 °C.

As to `Cn1c2ccccc2c2cccc(N)c21`, the melting point lay in the range of 90 to 92 °C.

`C=CCc1cc(CN2C(=O)CCc3c2ccc(O)c3CC=C)cc(OC)c1O` returned a melting point of 159 to 161 °C.

In turn, `O=C(Cc1ccccc1Cl)N1CCCc2ncc3ccccc3c21` had a melting point of 176 to 178 °C.

With `CSCCCn1c(C)c(C(=O)c2cccc(Cl)c2Cl)c2cccc(Br)c21`, the melting point worked out at 119 °C.

In turn, `CCCc1sc2nc(CCl)c(C(=O)OCC)c(-c3ccc(Cl)cc3)c2c1C` came in with a melting point of 95 to 96 °C.

Regarding `CC(C)(CO)NS(=O)(=O)c1cc(NC(=O)c2cnn3c(C(F)(F)F)cc(-c4ccc(Cl)cc4)nc23)c(Cl)s1`, the melting point stood at 272 °C.

On to `COc1cc(Nc2ncc(C#N)c(-c3ccc(C(C)(C)N)cc3)n2)cc(OC)c1OC`, for which the melting point fell in the range of 167 to 168 °C.

`COC(=O)/C(=C/c1ccc(OC)c(OC2CCCC2)c1)CC(=O)O` registered a melting point of 119 to 121 °C.

`Nc1ccc(Oc2c(NCc3ccccc3)cc(C(=O)O)cc2S(N)(=O)=O)cc1`: the melting point is 272 °C.

On to `O=C(O)c1cccc2[nH]cc(Cc3ccc(OCc4ccc5ccccc5n4)cc3)c12`, for which the melting point was in the range of 209 to 211 °C.

Consider `CCOCc1nc(C(C)(C)O)c(C(=O)OCc2oc(=O)oc2C)n1Cc1ccc(-c2ccccc2-c2nnn[nH]2)cc1`, for which the melting point fell in the range of 166 to 168 °C.

`O=S(=O)(O)CCc1cccnc1` registered a melting point of 275 to 278 °C.

`CS(=O)(=O)Nc1ccc(CCOS(C)(=O)=O)cc1` gave a melting point of 134 to 136 °C.

`CC1(C)OC(C)(C)C(=NO)C1=NO` displayed a melting point of 252 °C.

As for `CSC1(C)C(=O)Nc2ccc(C3=NNC(=O)SC3C)cc21` (configuration not stated), the melting point was 250 °C.

With `O=C(O)COc1ccc(SCc2ccc(OCc3ccccc3)cc2)c2c1CCC2`, the melting point was in the range of 145 to 147 °C.

With `C[C@@H]1CN(C(=O)N(c2ccccc2)c2ccccc2)[C@@H](C)CN1C(=O)N(c1ccccc1)c1ccccc1`, the melting point was 255 to 257 °C.

`FC(F)(F)c1ccc(-c2cc3ncnc(Nc4ccc5[nH]ccc5c4)c3s2)cc1`: the melting point lay within 181 to 194 °C.

Molecule `CCOCc1nc2c(N)nc3cc(OCCCCCCNC(=S)NC(C)C)ccc3c2n1CC(C)(C)NC(C)=O` came in with a melting point of 110 to 120 °C.

On to `COc1ccc2c(ccc3c4cc5c(cc4nnc23)OCO5)c1`, for which the melting point fell in the range of 258 to 260 °C.

For `Cc1c(-c2ccc(O)cc2)sc(C=O)c1-c1ccc(O)c(F)c1`, the melting point was 223 to 226 °C.

The molecule `CCCCCCCCCCCCCCCCCCOc1ccc2ccccc2c1` returned a melting point of 64 to 68 °C.

Regarding `CN(C)C(=O)CCNC(=O)c1ccc(-c2ccc3nnn(Cc4ccc5ncccc5c4)c3n2)cc1F`, the melting point was in the range of 163 to 165 °C.

Turning to `FC(F)(F)c1cc(-c2cccs2)[nH]n1`, the melting point was 121 °C.

`Oc1ccccc1-n1cnc(-c2ccccc2)n1`: the melting point fell in the range of 148 to 154 °C.

For the molecule `CCCCCCCCCCCCCCCC1Cc2ccc(C(=O)O)cc2N1` (racemic), the melting point is 119 to 122 °C.

`COc1cccc(-c2nc(-c3ccccc3)c3ncc(-c4csc5ccccc45)cc3n2)c1` came in with a melting point of 112 to 113 °C.

`CCCn1c(=O)c2c(nc(/C=C/c3ccc(OC(C)=O)c(OC)c3)n2C)n(CCC)c1=O` gave a melting point of 179 to 181 °C.

Molecule `CC(C)(C)c1cc(C2SC(CC(=O)O)C(=O)N2CCCO)cc(C(C)(C)C)c1O` (configuration not stated) showed a melting point of 227 to 228 °C.

For `COC(=O)c1ccc(C(=O)c2c(O)cccc2F)cc1`, the melting point is 101 °C.

Molecule `NS(=O)(=O)c1ccc(-c2coc(=O)n2-c2ccc(F)cc2)cc1` displayed a melting point of 211 to 213 °C.

With `COC(=O)c1ccc(NC(=O)c2ccc(-c3ccccc3)cc2)cc1`, the melting point was in the range of 247 to 251 °C.
